Measured values published in patent publication US11532406B2, “High specific activity preparation of F-18 tetrafluoroborate” (Mayo Foundation for Medical Education and Research, priority 2016, dated 2022).
Values joined by “and” are separate entries in the source; they are usually repeats but may differ in a detail not shown here. Equal entries are not always repeated.

Legend:
[1] = Stability of ^18F-TFB (radio-TLC and anion chromatography HPLC); format: physicochemical
Experimental: The product ^18F-TFB was analyzed for radiochemical purity by both radio-TLC (MeOH, Rf=0.8-0.85) and anion chromatography HPLC with radioactivity detector (Dionex IC-2100, AS19 analytical column: 4.7×150 mm; eluent: 35 mM KOH; sample volume: 25.L; flow rate: 1 mL/min; retention times: 7.6 min for ^18F-TFB, […]). Chemical purity and specific activity were analyzed by anion chromatography HPLC (retention times: 3.5 min for fluoride, 4.3 min for chloride, and 7.6 min for BF4—). Residual organic solvents were analyzed by GC (helium carrier gas flow at 10 cc/min through a MXTWAX column (Restek, Bellefonte, Pa., 0.53 mm ID, 30 m length)).
After the synthesis, a sample was diluted with water for the analysis. With the eluent of methanol on silica gel plate, purities of >98% were obtained on the radio-TLC scanner.
^18F-TFB was prepared and formulated in sterile 0.9% NaCl under cGMP conditions as previously described (12). Decay-corrected radiochemical yields of 32±2% and radiochemical purities (RCPs) >98% were obtained. Specific radioactivity of 2.2±0.9 GBq/μmol was achieved from starting ^18F-fluoride radioactivity of 20-31 GBq. In vitro RCP remained >96% up to 8 h at room temperature.

[2] = system: hNIS-expressing C6 glioma xenograft; experiment: Dynamic PET imaging in hNIS-expressing C6 glioma xenografted athymic mice; format: in vivo
Experimental: Studies with mice were performed under approval of the Mayo Clinic Institutional Animal Care and Use Committee. Dynamic PET imaging was performed in hNIS-expressing C6 glioma xenografted athymic mice following retro-orbital injection ˜1.1 MBq Na ^18F-TFB at different specific activities (10-0.001 mg TFB/Kg mouse) to assess hNIS activity with ^18F-TFB. In this xenograft model, one flank has hNIS-negative C6 glioma tumor xenograft and the other flank had hNIS-expressing C6 glioma xenograft.
PET scans were acquired for 60 min followed by an X-ray scan using the GENISYS4 PET imaging system (Sofie Biosciences, CA). The images from 40 hNIS-expressing C6 glioma xenografted mice were analyzed for Standardized Uptake Value (SUV) in tumor, stomach, and thyroid using AMIDE image processing software (20). The SUV in tumor was normalized with SUV in stomach to account for difference in ^18F-TFB bioavailability in different animals due to competing uptake in normal organs like thyroid, salivary glands and stomach.

[3] = Radiation dosimetry estimation (organ residence times, OLINDA); format: in vivo, human; conditions: for Residence Time, Bladder: bladder emptying model, 3.5 h voiding period; for Estimated absorbed radiation dose, Urinary Bladder Wall: bladder voiding interval of 3.5 h
Experimental: Radiation dosimetry estimates were calculated from organ residence times using OLINDA software (Ver. 1.1), assuming a bladder voiding interval of 3.5 h. Gender-specific organ masses for the conversion of SUV to disintegrations per organ per unit radioactivity administered (Bq-hr/Bq) were taken from Schlein et al. (15).
Bladder residence time was estimated by the bladder emptying model within the OLINDA software, assuming a 3.5 h bladder voiding period. The dose-critical organ is thyroid, with dose estimates of 0.26 and 0.36 mSv/MBq in males and females, respectively. […] Effective dose was higher in females (0.065 mSv/MBq) relative to males (0.036 mSv/MBq).

[4] = ~400 MBq ^18F-TFB synthesized by the conventional method, human subject; Jauregui-Osoro et al. (14); cited from earlier work
[5] = C6-glioma xenograft mouse model, PET

HPLC analysis of the product sample, ^18F-TFB peak ([1]; after 20 h): chemically stable | radiochemical purity by radio-TLC after 20 h ([1]; after 20 h, sample diluted with water, silica gel, methanol): > 96% | In vitro RCP ([1]; up to 8 h at room temperature, in sterile 0.9% NaCl): > 96% | uptake in thyroid, stomach, bladder and hNIS-expressing tumors [2, 5]: Robust uptake | stomach uptake versus specific activity ([2]; mouse, in vivo): independent of specific activity | stomach uptake over 60 min ([2]; over 60 min): linear increase | uptake kinetic in thyroid and hNIS-expressing tumor ([2]; rapid uptake over first 10 min, slower until 30 min): bi-phasic kinetic | Effective Dose ([3]; females): 0.065 mSv/MBq and 0.064 mSv/MBq | Estimated absorbed radiation dose, Adrenals ([3]; females): 0.012 mSv/MBq | Estimated absorbed radiation dose, Brain ([3]; females): 0.005 mSv/MBq | Estimated absorbed radiation dose, Breasts ([3]; females): 0.028 mSv/MBq | Estimated absorbed radiation dose, Gallbladder Wall ([3]; females): 0.022 mSv/MBq | Estimated absorbed radiation dose, Heart Wall ([3]; females): 0.030 mSv/MBq | Estimated absorbed radiation dose, Kidneys ([3]; females): 0.052 mSv/MBq | Estimated absorbed radiation dose, Liver ([3]; females): 0.033 mSv/MBq | Estimated absorbed radiation dose, Lower Large Intestine Wall ([3]; females): 0.015 mSv/MBq | Estimated absorbed radiation dose, Lungs ([3]; females): 0.014 mSv/MBq | Estimated absorbed radiation dose, Muscle ([3]; females): 0.011 mSv/MBq | Estimated absorbed radiation dose, Osteogenic Cells ([3]; females): 0.009 mSv/MBq | Estimated absorbed radiation dose, Ovaries ([3]; females): 0.020 mSv/MBq | Estimated absorbed radiation dose, Pancreas ([3]; females): 0.043 mSv/MBq | Estimated absorbed radiation dose, Red Marrow ([3]; females): 0.008 mSv/MBq | Estimated absorbed radiation dose, Skin ([3]; females): 0.004 mSv/MBq | Estimated absorbed radiation dose, Small Intestine Wall ([3]; females): 0.066 mSv/MBq | Estimated absorbed radiation dose, Spleen ([3]; females): 0.047 mSv/MBq | Estimated absorbed radiation dose, Stomach Wall ([3]; females): 0.184 mSv/MBq | Estimated absorbed radiation dose, Thymus ([3]; females): 0.005 mSv/MBq | Estimated absorbed radiation dose, Thyroid ([3]; females): 0.36 mSv/MBq | Estimated absorbed radiation dose, Total Body ([3]; females): 0.011 mSv/MBq | Estimated absorbed radiation dose, Upper Large Intestine Wall ([3]; females): 0.109 mSv/MBq | Estimated absorbed radiation dose, Uterus ([3]; females): 0.022 mSv/MBq | Residence Time, Bone ([3]; females): 3.1 ± 0.3 min | Residence Time, Brain ([3]; females): 1.3 ± 0.2 min | Residence Time, Breast ([3]; females): 2.8 ± 0.9 min | Residence Time, Gallbladder ([3]; females): 0.09 ± 0.04 min | Residence Time, Intestines ([3]; females): 13 ± 7 min | Residence Time, Kidney ([3]; females): 3.9 ± 0.8 min | Residence Time, Liver ([3]; females): 10 ± 2 min | Residence Time, Lung ([3]; females): 2.4 ± 0.2 min | Residence Time, Muscle ([3]; females): 26 ± 8 min | Residence Time, Myocardium ([3]; females): 1.8 ± 0.3 min | Residence Time, Pancreas ([3]; females): 0.58 ± 0.08 min | Residence Time, Parotid ([3]; females): 3.3 ± 1.2 min | Residence Time, Spleen ([3]; females): 1.6 ± 0.2 min | Residence Time, Stomach ([3]; females): 24 ± 12 min | Residence Time, Thyroid ([3]; females): 2.3 ± 0.9 min | Residence Time, Bladder ([3]; females): 19 ± 4 min | Estimated absorbed radiation dose, Urinary Bladder Wall ([3]; females): 0.22 mSv/MBq | Effective Dose ([3]; males): 0.036 mSv/MBq | Estimated absorbed radiation dose, Adrenals ([3]; males): 0.008 mSv/MBq | Estimated absorbed radiation dose, Brain ([3]; males): 0.004 mSv/MBq | Estimated absorbed radiation dose, Breasts ([3]; males): 0.002 mSv/MBq | Estimated absorbed radiation dose, Gallbladder Wall ([3]; males): 0.012 mSv/MBq | Estimated absorbed radiation dose, Heart Wall ([3]; males): 0.024 mSv/MBq | Estimated absorbed radiation dose, Kidneys ([3]; males): 0.049 mSv/MBq | Estimated absorbed radiation dose, Liver ([3]; males): 0.021 mSv/MBq | Estimated absorbed radiation dose, Lower Large Intestine Wall ([3]; males): 0.009 mSv/MBq | Estimated absorbed radiation dose, Lungs ([3]; males): 0.009 mSv/MBq | Estimated absorbed radiation dose, Muscle ([3]; males): 0.008 mSv/MBq | Estimated absorbed radiation dose, Osteogenic Cells ([3]; males): 0.008 mSv/MBq | Estimated absorbed radiation dose, Pancreas ([3]; males): 0.034 mSv/MBq | Estimated absorbed radiation dose, Red Marrow ([3]; males): 0.005 mSv/MBq | Estimated absorbed radiation dose, Skin ([3]; males): 0.003 mSv/MBq | Estimated absorbed radiation dose, Small Intestine Wall ([3]; males): 0.027 mSv/MBq | Estimated absorbed radiation dose, Spleen ([3]; males): 0.033 mSv/MBq | Estimated absorbed radiation dose, Stomach Wall ([3]; males): 0.076 mSv/MBq | Estimated absorbed radiation dose, Testes ([3]; males): 0.005 mSv/MBq | Estimated absorbed radiation dose, Thymus ([3]; males): 0.004 mSv/MBq | Estimated absorbed radiation dose, Thyroid ([3]; males): 0.26 mSv/MBq | Estimated absorbed radiation dose, Total Body ([3]; males): 0.008 mSv/MBq | Estimated absorbed radiation dose, Upper Large Intestine Wall ([3]; males): 0.045 mSv/MBq | Residence Time, Bone ([3]; males): 4.6 ± 1.3 min | Residence Time, Brain ([3]; males): 1.2 ± 0.4 min | Residence Time, Gallbladder ([3]; males): 0.06 ± 0.03 min | Residence Time, Intestines ([3]; males): 5.7 ± 1.9 min | Residence Time, Kidney ([3]; males): 4.2 ± 1.2 min | Residence Time, Liver ([3]; males): 8.3 ± 3.9 min | Residence Time, Lung ([3]; males): 2.1 ± 0.7 min | Residence Time, Muscle ([3]; males): 36 ± 14 min | Residence Time, Myocardium ([3]; males): 2.1 ± 0.6 min | Residence Time, Pancreas ([3]; males): 0.7 ± 0.3 min | Residence Time, Parotid ([3]; males): 1.7 ± 1.1 min | Residence Time, Spleen ([3]; males): 1.5 ± 0.4 min | Residence Time, Stomach ([3]; males): 11 ± 5 min | Residence Time, Thyroid ([3]; males): 2.0 ± 0.7 min | Residence Time, Bladder ([3]; males): 17 ± 2 min | Estimated absorbed radiation dose, Urinary Bladder Wall ([3]; males): 0.14 mSv/MBq
SMILES: F[B-](F)(F)[18F] [^18F-TFB, ^18F-tetrafluoroborate]
uptake by hNIS-expressing tumor versus specific activity ([2]; >13 MBq/μmol compared to 3 MBq/μmol): higher at high specific activity | uptake in hNIS-negative tumors [2, 5]: No uptake | estimated plasma concentration of TFB [4]: ~0.1 µM
